Series [1] concerns the target mTOR (Homo sapiens, UniProt P42345). The series is described as follows: mTOR HTR-FRET Assay. Type of series: biochemical. The essentials:
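TOR enzyme fraction preincubated 30 min at room temperature with compound, then reaction started with GST-p70S6 kinase fragment substrate (97 nM working stock) plus ATP/Mn2+ and run 2 h at room temperature in Tris pH 7.4 buffer. Stopped with EDTA; phospho-substrate detected by HTRF antibody reagent after 5 h to overnight.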

In series [2] the target is T1, Tyk2 (Homo sapiens, UniProt P29597).
T1 construct: 450 ng/ml TYK2 KD (Cama Biosciences 08-147 Lot 06CBS-3022D); purchased Cama Biosciences (so in the source)
T1 sequence (P29597 897-1176 limits assumed): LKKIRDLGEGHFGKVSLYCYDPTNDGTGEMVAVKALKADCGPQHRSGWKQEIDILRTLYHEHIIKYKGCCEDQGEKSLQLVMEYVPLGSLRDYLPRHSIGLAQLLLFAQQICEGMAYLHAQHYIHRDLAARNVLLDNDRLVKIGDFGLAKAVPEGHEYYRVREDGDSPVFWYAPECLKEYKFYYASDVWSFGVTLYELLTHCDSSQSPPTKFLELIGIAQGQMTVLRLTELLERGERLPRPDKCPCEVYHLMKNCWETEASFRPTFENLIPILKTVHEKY
The series is described as follows: Tyk2 HTRF Assay. Type of series: biochemical. The protocol: The following is an example of an assay that can be used to determine the Tyk2 inhibitory activity of a test compound.
25 μl/well DMSO is added to Columns 2 and 14 (except 28.5 μl is added to well P14 of Greiner 384-well polypropylene plate). 20 μl/well DMSO is added to all remaining wells.
5 mM compound solutions are added by addition of 5 μl of 30 mM compound to 25 μl DMSO in Columns 2 and 14 of plate. 1.5 mM reference control is prepared by addition of 1.5 μl of 30 mM JAK3 Inhibitor VI to 28.5 μl DMSO in Well P14.
Serial dilution is then performed by the following steps: (i) Compounds in Column 2 are mixed by pipetting 20 μl up and down 6X; (ii) 10 μl/well compounds in DMSO are transferred from one column to the next column for Columns 2-11; (iii) wells are mixed by pipetting 20 μl up and down 6×; (iv) tips are washed 3×25 μl DMSO, 2×25 μl next DMSO; (v) steps i-iv repeated for Columns 14-23.
(§1) The following buffers are prepared:
Assay Buffer: 50 mM HEPES pH 7.6; 1 mM DTT; 10 mM MgCl2; 0.01% Triton X100; 0.01% BSA; and 0.1 mM EDTA.
Kinase in Assay Buffer: 450 ng/ml TYK2 KD (Cama Biosciences 08-147 Lot 06CBS-3022D).
Substrate/Detection Mixture (1×ATP) in Assay Buffer: 188 nM DyLight 647-Streptavidin (Pierce 21824); 5 μM Biotin-EQEDEPEGDYFEWLE (Lyn Substrate Peptide); 750 ng/ml Eu-anti-phospho-Tyrosine (PerkinElmer AD0069); 62.5 μM ATP; 80 nM Substrate Peptide (American Peptide Company 332722).
Substrate/Detection Mixture (20×ATP) in Assay Buffer: 188 nM DyLight 647-Streptavidin; 5 μM Biotin-EQEDEPEGDYFEWLE; 750 ng/ml Eu-anti-phospho-Tyrosine; 1250 μM ATP; 80 nM Substrate Peptide.
14.5 μl/well Enzyme Mix or Dilution Buffer (Background Controls) is added to Costar 384 well black plates.
Compound addition and mixture is performed by the following steps: (i) 0.5 μl/well DMSO/compounds in DMSO is transferred from Greiner 384-well polypropylene plate to a plate containing 14.5 μl/well Enzyme Mix and Dilution Buffer; (ii) mixed by pipetting 10 μl up and down 4×; (iii) tips are washed 4×10 μl in DMSO, 2×20 μl in other DMSO; (iv) steps i-iii are repeated until all plates are completed.
10 μl/well Substrate/Detection Mixtures is added and incubated at room temperature 2 hours (on shaker for first 2+ minutes).
10 μl/well 50 mM EDTA/0.01% Triton X100 is added and incubated >15 minutes at room temperature (on shaker for first 2+ minutes).
Plates are read at 665 nm and 620 nm emission on Analyst GT protocol HTRF_SP_A (Counts= 665/620×10000).
In general terms: TR-FRET usually uses a lanthanide donor and a delayed reading to cut background.

Series [3] deals with T2, Syk (Homo sapiens, UniProt P43405).
T2 construct: purchased Cama Biosciences (so in the source)
Kind of series: Syk HTRF Assay. Type of series: biochemical. As for the experimental part:
5 μl/well DMSO is added to Column 2 Wells A-0 and 29.5 μl to well P2 of Greiner 384-well polypropylene plate. 20 μl/well DMSO is added to Columns 1 and 3-12.
25 mM compound solutions are prepared by the addition of 25 μl of 30 mM compound to Column 2 and 0.5 μl 30 mM reference control to well P2.
Serial dilution is then performed by the following steps: (i) compounds in Column 2 are mixed by pipetting 20 μl up and down 6×; (ii) 10 μl/well compounds in DMSO are transferred from one column to the next column for Columns 2-11; (iii) wells are mixed by pipetting 20 μl up and down 6×; (iv) tips washed 3×25 μl DMSO, 2×25 μl next DMSO.
as §1
Dilution Buffer: 50 mM HEPES pH 7.6; 1 mM DTT; 10 mM MgCl2; 0.01% Triton X100; 0.01% BSA; 0.1 mM EDTA.
Enzyme Mix in Dilution Buffer: 8.621 ng/ml Syk (Cama Biosciences 08-176).
Start Mix in Dilution Buffer: 87.5 μM ATP; 80 nM Substrate Peptide (American Peptide Company 332722).
14.5 μl/well Enzyme Mix or Dilution Buffer (Background Controls) is added to Costar 384-well black plates.
Compound addition and mixture is performed by the following steps: (i) 0.5 μl/well DMSO/compounds in DMSO transferred from Greiner 384-well polypropylene plate to left half of assay plate containing 14.5 μl/well Enzyme Mix and Dilution Buffer; (ii) Mix by pipetting 10 μl up and down 4×; (iii) tips are washed 4×10 μl in DMSO, 2×20 μl in other DMSO; (iv) steps i-iii are repeated with transfer to right half of assay plate; (v) steps i-iv are repeated with each compound/assay plate until all plates are completed.
10 μl/well Start Mix is added and incubated at room temperature on shaker for 2 minutes (1 hour total reaction time).
Stop Solution in Dilution Buffer: 120 mM EDTA
Antibody Mix in Dilution Buffer: 4.86 μg/ml DyLight 647 Streptavidin (Pierce 21824); 1 μg/ml Lance Eu-Anti-Phosphotyrosine (PerkinElmer AD0069).
5 μl/well[…] is added and incubated at room temperature on shaker for 2 minutes.
[…] Antibody Mix is added and Incubated at room temperature on shaker for 2 minutes (4 hours to overnight total time).
Plates are read at 665 nm and 620 nm emission on Analyst GT protocol HTRF_SP_A or EnVision protocol Steve's TR-FRET.

The values that follow come from US7968556B2, “Heteroaryl compounds, compositions thereof, and methods of treatment therewith” (Signal Pharmaceuticals, LLC, priority 2006, dated 2011).

pIC50: −log10 of the molar value.

By pIC50 is commonly meant the negative decadic logarithm of the IC50, by convention in mol/L. What is called melting point is the temperature of the solid-liquid transition.

`COc1ccccc1-n1c(=O)[nH]c2c(C(N)=O)nc(-c3cccc(O)c3F)nc21` [Compound 77, 2-(2-Fluoro-3-hydroxyphenyl)-9-(2-methoxyphenyl)-8-oxo-7-hydropurine-6-carbox-amide] showed a melting point of over 300 °C. In series [1], this compound showed a pIC50 of 5.30 to 7.00. The compound further gave a pIC50 in series [2] of 5.30 to 7.00.
`COc1ccccc1-n1c(=O)[nH]c2c(C(N)=O)nc(-c3cccc(O)c3Cl)nc21` [Compound 54, 2-(2-Chloro-3-hydroxyphenyl)-9-(2-methoxyphenyl)-8-oxo-7-hydropurine-6-carbox amide] registered a melting point of 331 to 334 °C. The compound further showed a pIC50 in series [1] of 5.30 to 7.00. The compound further showed a pIC50 in series [3] of 5.30 to 7.00.
In turn, `COc1ccccc1-n1c(=O)[nH]c2c(C(N)=O)nc(-c3cccc4[nH]cnc34)nc21` [Compound 99, 2-(1H-benzo[d]imidazol-4-yl)-9-(2-methoxyphenyl)-8-oxo-8,9-dihydro-7H-purine-6-carboxamide] came in with a melting point of 312 °C. Further, in series [1], the pIC50 was under 4.52. In series [2], this compound gave a pIC50 of 5.30 to 7.00.
The matching figures for `NC(=O)c1nc(-c2cccc(O)c2)nc2c1[nH]c(=O)n2[C@H]1CC[C@H](O)CC1` [Compound 47, 9-(trans-4-Hydroxycyclohexyl)-2-(3-hydroxyphenyl)-8-oxo-8,9-dihydro-7H-purine-6-carboxamide]: 366 to 368 °C, 5.30 to 7.00 and 4.70 to 5.00.
As to `NC(=O)c1nc(-c2ccc3nc[nH]c3c2)nc2c1[nH]c(=O)n2-c1ccccc1F` [Compound 101, 2-(1H-benzo[d]imidazol-6-yl)-9-(2-fluorophenyl)-8-oxo-8,9-dihydro-7H-purine-6-carboxamide], the melting point came out at 278 °C. In series [1], the pIC50 was 5.30 to 7.00. The same compound gave a pIC50 in series [3] of 4.70 to 5.00.
Regarding `CNC(=O)c1nc(-c2cccc(O)c2)nc2c1[nH]c(=O)n2-c1ccccc1OC` [Compound 42, [2-(3-Hydroxyphenyl)-9-(2-methoxyphenyl)-8-oxo(7-hydropurin-6-yl)]-N-methylcarbox-amide], the melting point was determined as 339 °C. This compound showed a pIC50 in series [1] of under 4.52. In series [2], this compound gave a pIC50 of under 4.52.
Turning to `NC(=O)c1nc(-c2cccc(O)c2)nc2c1[nH]c(=O)n2-c1c(Cl)cccc1Cl` [Compound 69, 9-(2,6-Dichlorophenyl)-2-(3-hydroxyphenyl)-8-oxo-7-hydropurine-6-carboxamide], the melting point was in the range of 290 to 292 °C. This compound had a pIC50 in series [1] of 5.30 to 7.00. The same compound showed a pIC50 in series [2] of 5.30 to 7.00.
`COc1ccccc1-n1c(=O)[nH]c2c(C(N)=O)nc(-c3cccc(N)c3)nc21` [Compound 38, 2-(3-aminophenyl)-9-(2-methoxyphenyl)-8-oxo-8,9-dihydro-7H-purine-6-carboxamide] came in with a melting point of 284 to 285 °C. The compound further showed a pIC50 in series [3] of under 4.52.
